Reference: patent US11059795B2, “Androgen receptor modulators and methods for their use” (ESSA Pharma, Inc., priority 2018, dated 2021)

How the values were obtained:
androgen receptor (AR) = biological target: T1, androgen receptor (AR) (Homo sapiens, UniProt P10275, T878A); test: Androgen-induced PSA (6.1 kb)-luciferase reporter assay in LNCaP cells; format: cell-based; details: LNCaP cells transfected with PSA (6.1 kb)-luciferase reporter, R1881 1 nM, 24 h; read-out: PSA-Luc IC50 Range
T1 construct: LNCaP cells were transiently transfected with the PSA (6.1 kb)-luciferase reporter for 24 h; endogenous in cells; host or cells: LNCaP
T1 sequence (P10275 1-920 T878A): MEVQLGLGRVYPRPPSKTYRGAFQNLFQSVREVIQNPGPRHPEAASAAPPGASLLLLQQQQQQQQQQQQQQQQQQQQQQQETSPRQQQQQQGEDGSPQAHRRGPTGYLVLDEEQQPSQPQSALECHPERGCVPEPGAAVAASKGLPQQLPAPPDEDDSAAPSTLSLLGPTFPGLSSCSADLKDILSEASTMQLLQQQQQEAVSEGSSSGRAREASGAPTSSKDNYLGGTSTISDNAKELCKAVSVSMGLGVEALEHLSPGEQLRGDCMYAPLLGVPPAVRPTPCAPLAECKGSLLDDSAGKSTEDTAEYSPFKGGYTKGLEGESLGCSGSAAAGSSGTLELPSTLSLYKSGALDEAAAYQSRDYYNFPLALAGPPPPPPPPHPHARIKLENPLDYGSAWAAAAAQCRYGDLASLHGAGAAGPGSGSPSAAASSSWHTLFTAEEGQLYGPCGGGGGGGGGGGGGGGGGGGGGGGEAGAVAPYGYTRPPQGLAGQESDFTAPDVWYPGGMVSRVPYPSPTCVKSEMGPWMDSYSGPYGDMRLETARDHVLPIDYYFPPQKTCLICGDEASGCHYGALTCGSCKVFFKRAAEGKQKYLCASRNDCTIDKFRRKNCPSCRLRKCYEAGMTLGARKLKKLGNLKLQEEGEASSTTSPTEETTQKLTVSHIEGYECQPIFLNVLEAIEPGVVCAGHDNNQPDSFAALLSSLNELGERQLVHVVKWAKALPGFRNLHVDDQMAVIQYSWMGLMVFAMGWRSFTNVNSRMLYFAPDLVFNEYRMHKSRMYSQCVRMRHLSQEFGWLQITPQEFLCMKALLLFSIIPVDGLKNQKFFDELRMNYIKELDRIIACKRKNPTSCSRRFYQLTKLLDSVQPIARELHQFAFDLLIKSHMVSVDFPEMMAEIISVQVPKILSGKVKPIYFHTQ
Procedure, shortened: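 Read-out is firefly luminescence (10 s) in LNCaP lysates, normalized to protein, from an ARE-containing PSA (6.1 kb)-luciferase reporter driven by androgen.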

[1] = Microsomal stability assay, mouse liver microsomes; format: in vitro ADME; details: 1 μM compound, 0.5 mg/mL protein, 37° C.; for microsomal CLint at 1 μM: mouse, liver microsomes, pH 7.4, mouse liver microsomes, read-out: MLM +30/− NADPH: Clint (μL/min/mg protein)
Procedure, shortened: (§1)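 Compound at 1 μM was incubated at 37° C with 0.5 mg/mL liver microsomes and 1 mM NADPH and/or 1 mM UDPGA (with alamethicin) in 100 mM potassium phosphate pH 7.4, 3 mM MgCl2. Samples were taken at 0, 15, 30 and 60 min and measured by LC/MS/MS. t½ came from compound loss relative to 0 min, and Clint was scaled with 45 mg microsomal protein/g liver.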

[2] = Hepatocyte stability assay, mouse hepatocytes; format: in vitro ADME; details: 1 μM compound, 0.5 million cells/mL, 37° C.; for hepatocyte CLint at 1 μM: mouse, cryopreserved hepatocytes, read-out: MH +/− NADPH: Clint (μL/min/million cells)
Source text: The […] of in vitro intrinsic clearance (Clint) for drug candidates in the early discovery stage is common practice in the pharmaceutical industry. The Clint values of drug candidates can help to confirm whether metabolism is the main clearance pathway when it is compared with the total body clearance in vivo. Hepatocytes are among the routinely used in vitro systems for measuring clearance. Hepatocytes have been reported to retain most of the phase I and phase II metabolic activities, and therefore, it is a useful tool to estimate the intrinsic clearance for potential drug candidates.
Metabolic stability of testing compound were be evaluated using human and mouse hepatocytes and can also be use rat, mouse, or other animal hepatocytes to predict intrinsic clearance. Cryopreserved hepatocytes were removed from the liquid nitrogen tank and thawed in a 37° C. water bath. As soon as the cells pulled away from the vial wall, they were decanted into 48 ml of warm HT medium. Cells were centrifuged for four minutes at 420 rpm (50 g). After removing the supernatant, pellet was re-suspended in warm DMEM medium. Cell density was counted by a hemacytometer.
The assay was carried out in 96-well microtiter plates. Compounds were incubated for 0, 60, 120, and 180 minutes at 37° C. with hepatocytes. Reaction mixtures (50 μL) contained a final concentration of 1 μM test compound, 0.5 million cells/mL hepatocytes in the DMEM medium. At each of the time points (for example, 0, 1, 2, and 3 hours), 200 μL of quench solution (100% acetonitrile with 0.1% formic acid) with internal standard was transferred to each well. Midazolam was included as a positive control to verify assay performance. Plates were sealed and centrifuged at 4° C. for 15 minutes at 4000 rpm. The supernatant is transferred to fresh plates for LC/MS/MS analysis.
Summarized conditions (customizable): [Compound]=[…], Positive control: midazolam and/or naloxone, [Hepatocyte]=0.5 million cells/Ml, time=0, 60, 120, and 180 min, t=37° C.
All samples were analyzed on LC/MS/MS using an AB Sciex API 4000 instrument, coupled to a Shimadzu LC-20AD LC Pump system. Analytical samples were separated using a Waters Atlantis T3 dC18 reverse phase HPLC column (20 mm×2.1 mm) at a flow rate of 0.5 mL/min. The mobile phase consisted of 0.1% formic acid in water (solvent A) and 0.1% formic acid in 100% acetonitrile (solvent B).
The extent of metabolism was calculated as the disappearance of the test compound, compared to the 0-min control reaction incubations. Initial rates were calculated for the compound concentration and used to determine t½ values and subsequently, the intrinsic clearance, Clint. Clint=(0.693)(1/t½(min))(mL incubation/million cells)

[3] = Microsomal stability assay, human liver microsomes; format: in vitro ADME; details: 0.5 mg/mL protein, 37° C.; for microsomal CLint at 1 μM: pH 7.4, 1 μM compound, read-out: HLM +/− NADPH: Clint (μL/min/mg protein)
Procedure, shortened: as §1

| SMILES | IC50 (androgen receptor (AR)) [nM] | MLM +30/− NADPH: Clint (μL/min/mg protein) ([1]; mouse liver microsomes) | MH +/− NADPH: Clint (μL/min/million cells) [2] | HLM +/− NADPH: Clint (μL/min/mg protein) ([3]; 1 μM compound) | microsomal CLint at 1 μM [1] [µL/min/mg] | hepatocyte CLint at 1 μM [2] [µL/min/1e6 cells] | microsomal CLint at 1 μM [3] [µL/min/mg] |
| --- | --- | --- | --- | --- | --- | --- | --- |
| CC(C)(c1ccc(OCc2nccnc2NS(C)(=O)=O)cc1)c1cc(Cl)c(OCCCl)c(C#N)c1 [Compound A104] | < 500 | * (* represents Cl in the range of ≥48 μL/min/mg protein) | * (* represents Cl in the range of ≥18 μL/min/million cells) | ** (** represents Cl in the range of 12-48 μL/min/mg protein) |  |  |  |
| CC(N)(c1ccc(OCc2ocnc2S(C)(=O)=O)cc1)c1cc(Cl)c(OCCCl)c(C#N)c1 (stereo not shown) [Compound A105] | > 2000 |  |  |  | ≥ 48 | ≥ 18 | 12 to 48 |
| C[C@](O)(c1ccc(OCc2ocnc2S(C)(=O)=O)cc1)c1cc(Cl)c(OCCCl)c(C#N)c1 [Compound A108] | 500 to 2000 |  |  |  | ≥ 48 | ≥ 18 | < 12 |
| CSc1ncc(COc2ccc(C(C)(C)c3cc(Cl)c(OCCCl)c(Cl)c3)cc2)o1 [Compound A111] | < 500 |  |  |  | 12 to 48 | 4 to 18 | 12 to 48 |
| COc1ncc(COc2ccc(C(C)(C)c3cc(Cl)c(OCCCl)c(C#N)c3)cc2)o1 [Compound A112, 3-chloro-2-(2-chloroethoxy)-5-(2-(4-((2-methoxyoxazol-5-yl)methoxy)phenyl)propan-2-yl)benzonitrile] | < 500 |  |  |  | 12 to 48 | 4 to 18 | < 12 |
| CC(C)(c1ccc(OCc2cnc(C#N)o2)cc1)c1cc(Cl)c(OCCCl)c(C#N)c1 [Compound A113] | > 2000 |  |  |  | 12 to 48 | ≥ 18 | 12 to 48 |
| CC(C)(c1ccc(OCc2cnc(C(N)=O)o2)cc1)c1cc(Cl)c(CCCCl)c(C#N)c1 [Compound A114] | 500 to 2000 |  |  |  | 12 to 48 | ≥ 18 | < 12 |
| CC(C)(c1ccc(OCc2cnc(Cl)o2)cc1)c1cc(Cl)c(OCCCl)c(C#N)c1 [Compound A115] | < 500 |  |  |  | < 12 | ≥ 18 | < 12 |
| CC(Oc1ccc(C(C)(C)c2cc(Cl)c(OCCCl)c(Cl)c2)cc1)c1[nH]cnc1S(C)(=O)=O (stereo not shown) [Compound A116] | 500 to 2000 |  |  |  | 12 to 48 | 4 to 18 | 12 to 48 |
| CC(C)(c1ccc(OCc2ocnc2S(C)(=O)=O)cc1)c1cc(Cl)c(OCC(O)CCl)c(Cl)c1 (stereo not shown) [Compound A117] | 500 to 2000 |  |  |  | 12 to 48 | ≥ 18 | 12 to 48 |
| CSc1nc(COc2ccc(C(C)(C)c3cc(Cl)c(OCCCl)c(C#N)c3)cc2)c(C)o1 [Compound A118] | 500 to 2000 |  |  |  | ≥ 48 | 4 to 18 | ≥ 48 |
| CSc1nc(C)c(COc2ccc(C(C)(C)c3cc(Cl)c(OCCCl)c(C#N)c3)cc2)o1 [Compound A119] | < 500 |  |  |  | ≥ 48 | 4 to 18 | ≥ 48 |
| CC(C)(c1ccc(CNc2ccnc(NS(C)(=O)=O)n2)cc1)c1cc(Cl)c(OCCCl)c(C#N)c1 [Compound A120] | > 2000 |  |  |  | < 12 | 4 to 18 | ≥ 48 |
| CC(C)(c1ccc(CCc2ccnc(N)n2)cc1)c1cc(Cl)c(OCCCl)c(C#N)c1 [Compound A121] | 500 to 2000 |  |  |  | 12 to 48 | 4 to 18 | 12 to 48 |
| Cc1nc(NS(C)(=O)=O)nc(COc2ccc(C(C)(C)c3cc(Cl)c(OCCCl)c(C#N)c3)cc2)c1C [Compound A123] | < 500 |  |  |  | ≥ 48 | 4 to 18 | < 12 |
| CC(C)(c1ccc(OCc2ccnc(S(C)(=O)=O)n2)cc1)c1cc(Cl)c(OCCCl)c(C#N)c1 [Compound A124] | > 2000 |  |  |  | ≥ 48 | ≥ 18 | < 12 |
| CC(C)S(=O)(=O)c1nc(COc2ccc(C(C)(C)c3cc(Cl)c(OCCCl)c(C#N)c3)cc2)co1 [Compound A125] | < 500 |  |  |  | ≥ 48 | ≥ 18 | < 12 |
| CC(C)(c1ccc(OCc2coc(NS(C)(=O)=O)n2)cc1)c1cc(Cl)c(OCCCl)c(C#N)c1 [Compound A130] | 500 to 2000 |  |  |  | < 12 | < 4 | 12 to 48 |
| CC(C)S(=O)(=O)Nc1nc(COc2ccc(C(C)(C)c3cc(Cl)c(OCCCl)c(C#N)c3)cc2)co1 [Compound A132] | 500 to 2000 |  |  |  | < 12 | < 4 | < 12 |
| CC(C)(c1ccc(OCc2cnc(NS(C)(=O)=O)o2)cc1)c1cc(Cl)c(OCCCl)c(C#N)c1 [Compound A133] | < 500 |  |  |  | ≥ 48 | ≥ 18 | ≥ 48 |
| CC(C)(c1ccc(OCc2csc(NS(C)(=O)=O)n2)cc1)c1cc(Cl)c(OCCCl)c(C#N)c1 [Compound A134, N-(4-((4-(2-(3-chloro-4-(2-chloroethoxy)-5-cyanophenyl)propan-2-yl)phenoxy)methyl)thiazol-2-yl)methanesulfonamide] | 500 to 2000 |  |  |  | < 12 | < 4 | 12 to 48 |
| CC(C)(c1ccc(OCc2ncc(NS(C)(=O)=O)s2)cc1)c1cc(Cl)c(OCCCl)c(C#N)c1 [Compound A135] | < 500 |  |  |  | 12 to 48 | ≥ 18 | 12 to 48 |
